This is an account of results in US20200048267A1, “OGA INHIBITOR COMPOUNDS” (Janssen Pharmaceutica NV, priority 2017, published 2020).

The structures appear in SMILES notation.

Assay [1] deals with T1, recombinant human Meningioma Expressed Antigen 5 (MGEA5), also referred to as O-GlcNAcase (OGA) (Homo sapiens, UniProt O60502).
T1 construct: Full length OGA enzyme was purchased at OriGene (cat # TP322411); purchased OriGene TP322411
T1 sequence (O60502 1-916): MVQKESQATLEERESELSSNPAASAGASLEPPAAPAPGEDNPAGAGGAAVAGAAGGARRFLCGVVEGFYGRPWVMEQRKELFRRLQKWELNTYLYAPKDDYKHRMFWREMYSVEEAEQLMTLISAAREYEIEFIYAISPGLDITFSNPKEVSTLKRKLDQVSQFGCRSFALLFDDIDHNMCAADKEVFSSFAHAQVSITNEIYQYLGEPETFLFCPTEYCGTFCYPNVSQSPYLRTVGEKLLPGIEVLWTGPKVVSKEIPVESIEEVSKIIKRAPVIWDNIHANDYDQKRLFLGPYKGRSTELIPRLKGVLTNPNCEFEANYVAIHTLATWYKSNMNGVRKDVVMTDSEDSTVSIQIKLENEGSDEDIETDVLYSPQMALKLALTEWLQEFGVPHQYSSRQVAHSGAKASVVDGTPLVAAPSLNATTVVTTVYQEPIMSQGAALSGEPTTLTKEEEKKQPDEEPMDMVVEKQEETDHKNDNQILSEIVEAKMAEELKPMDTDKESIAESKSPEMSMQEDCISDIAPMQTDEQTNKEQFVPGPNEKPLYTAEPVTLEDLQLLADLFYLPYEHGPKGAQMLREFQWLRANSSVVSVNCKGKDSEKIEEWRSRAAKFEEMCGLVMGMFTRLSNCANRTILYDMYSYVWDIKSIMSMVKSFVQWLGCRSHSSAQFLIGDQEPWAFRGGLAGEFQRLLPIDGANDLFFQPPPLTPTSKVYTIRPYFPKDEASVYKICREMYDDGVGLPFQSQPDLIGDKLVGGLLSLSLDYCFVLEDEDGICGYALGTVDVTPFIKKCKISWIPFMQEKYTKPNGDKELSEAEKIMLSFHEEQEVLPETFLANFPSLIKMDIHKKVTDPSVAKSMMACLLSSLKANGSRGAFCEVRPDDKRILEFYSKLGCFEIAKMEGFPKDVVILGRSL
In words: OGA biochemical assay (inhibition of FM-GlcNAc hydrolysis, fluorescence). The settings on record: for Emax: read-out: ENZYMATIC Emax (%); for IC50: read-out: ENZYMATIC hOGA, pIC50 (converted). The text has this: The assay is based on the inhibition of the hydrolysis of fluorescein mono-β-D-N-Acetyl-Glucosamine (FM-GlcNAc) (Mariappa et al. 2015, Biochem J 470:255) by the recombinant human Meningioma Expressed Antigen 5 (MGEA5), also referred to as O-GlcNAcase (OGA). The hydrolysis FM-GlcNAc (Marker Gene technologies, cat # M1485) results in the formation of B-D-N-glucosamineacetate and fluorescein. The fluorescence of the latter can be measured at excitation wavelength 485 nm and emission wavelength 538 nm. An increase in enzyme activity results in an increase in fluorescence signal. Full length OGA enzyme was purchased at OriGene (cat # TP322411). The enzyme was stored in 25 mM Tris.HCl, pH 7.3, 100 mM glycine, 10% glycerol at −20° C. Thiamet G and GlcNAcStatin were tested as reference compounds (Yuzwa et al. 2008 Nature Chemical Biology 4:483; Yuzwa et al. 2012 Nature Chemical Biology 8:393). The assay was performed in 200 mM Citrate/phosphate buffer supplemented with 0.005% Tween-20. 35.6 g Na2HPO4 2 H2O (Sigma, # C0759) were dissolved in 1 L water to obtain a 200 mM solution. 19.2 g citric acid (Merck, # 1.06580) was dissolved in 1 L water to obtain a 100 mM solution. pH of the sodium phosphate solution was adjusted with the citric acid solution to 7.2. The buffer to stop the reaction consists of a 500 mM Carbonate buffer, pH 11.0. 734 mg FM-GlcNAc were dissolved in 5.48 mL DMSO to obtain a 250 mM solution and was stored at −20° C. OGA was used at 2 nM concentration and FM-GlcNAc at a 100 uM final concentration. Dilutions were prepared in assay buffer.
50 nl of a compound dissolved in DMSO was dispensed on Black Proxiplate™ 384 Plus Assay plates (Perkin Elmer, #6008269) and 3 μl fl-OGA enzyme mix added subsequently. Plates were pre-incubated for 60 min at room temperature and then 2 μl FM-GlcNAc substrate mix added. […] Plates were briefly centrifuged for 1 min at 1000rpm and incubate at room temperature for 6 h. To stop the reaction 5 μl STOP buffer were added and plates centrifuge again 1 min at 1000 rpm.
Fluorescence was quantified in the Thermo Scientific Fluoroskan Ascent or the PerkinElmer EnVision with excitation wavelength 485 nm and emission wavelength 538 nm.
For analysis a best-fit curve is fitted by a minimum sum of squares method. From this an IC50 value and Hill coefficient was obtained. High control (no inhibitor) and low control (saturating concentrations of standard inhibitor) were used to define the minimum and maximum values.

For a further assay, the target named is T2, OGA (Homo sapiens, UniProt O60502).
T2 construct: HEK293 cells inducible for P301L mutant human Tau (isoform 2N4R) were established at Janssen; endogenous in cells; host or cells: HEK293 cells inducible for P301L mutant human Tau (2N4R)
T2 sequence (O60502 1-916): T1 sequence (O60502 1-916)
The assay can be described thus: OGA cellular assay (ICC detection of O-GlcNAcylated proteins in HEK293 cells inducible for P301L mutant human Tau). It counts as cell-based. The settings on record: 6 hours incubation; for EC50: read-out: CELLULAR hOGA, pEC50 (converted). On the procedure: HEK293 cells inducible for P301L mutant human Tau (isoform 2N4R) were established at Janssen. Thiamet-G was used for both plate validation (high control) and as reference compound (reference EC50 assay validation). OGA inhibition is evaluated through the immunocytochemical (ICC) detection of O-GlcNAcylated proteins by the use of a monoclonal antibody (CTD110.6; Cell Signaling, #9875) detecting O-GlcNAcylated residues as previously described (Dorfmueller et al. 2010 Chemistry & biology, 17:1250). Inhibition of OGA will result in an increase of O-GlcNAcylated protein levels resulting in an increased signal in the experiment. Cell nuclei are stained with Hoechst to give a cell culture quality control and a rough estimate of immediate compounds toxicity, if any. ICC pictures are imaged with a Perkin Elmer Opera Phenix plate microscope and quantified with the provided software Perkin Elmer Harmony 4.1.
Cells were propagated in DMEM high Glucose (Sigma, #D5796) following standard procedures. 2 days before the cell assay cells are split, counted and seeded in Poly-D-Lysine (PDL) coated 96-wells (Greiner, #655946) plate at a cell density of 12,000 cells per cm^2 (4,000 cells per well) in 100 µl of Assay Medium (Low Glucose medium is used to reduce basal levels of GlcNAcylation) (Park et al. 2014 The Journal of biological chemistry 289:13519). At the day of compound test medium from assay plates was removed and replenished with 90 μl of fresh Assay Medium. 10 μl of compounds at a 10 fold final concentration were added to the wells. Plates were centrifuged shortly before incubation in the cell incubator for 6 hours. DMSO concentration was set to 0.2%. Medium is discarded by applying vacuum. For staining of cells medium was removed and cells washed once with 100 μl D-PBS (Sigma, #D8537). From next step onwards unless other stated assay volume was always 50 μl and incubation was performed without agitation and at room temperature. Cells were fixed in 50 μl of a 4% paraformaldehyde (PFA, Alpha aesar, # 043368) PBS solution for 15 minutes at room temperature. […] Before analysis samples were washed 2 times manually for 5 minutes in ICC base buffer.
Imaging is performed using Perkin Elmer Phenix Opera using a water 20× objective and recording 9 fields per well. Intensity readout at 488 nm is used as a measure of O-GlcNAcylation level of total proteins in wells. To assess potential toxicity of compounds nuclei were counted using the Hoechst staining. IC50-values are calculated using parametric non-linear regression model fitting. As a maximum inhibition Thiamet G at a 200 uM concentration is present on each plate. In addition, a concentration response of Thiamet G is calculated on each plate.

For the compound `CC(=O)Nc1ncc(CN2CCC3(CCN(c4cc(C)cnc4C)C3)C2)s1` (stereo not shown) [Product 50], in assay [1], the Emax was 101% and the IC50 is 0.0251 µM. In addition, at OGA, the maximal effect (Emax) was determined as 87.8% and the EC50 is 0.186 µM.
On to `CC(=O)Nc1ncc(CN2CCC3(CCN(c4cc(C)ncc4C)C3)C2)s1` (stereo not shown) [Product 39], for which, in assay [1], the “ENZYMATIC hOGA; pIC50” value is 7.87 and the maximum response (Emax) came to 101%. Also, on OGA, the maximum response (Emax) amounted to 87.3% and the EC50 is 0.0776 µM.
In the case of `Cc1cc(N2CCC3(CCN(C(C)c4ccc5c(c4)OCCO5)C3)C2)cc(C)n1` (stereo not shown) [Product 38], in assay [1], the maximal response (Emax) is 101% and the IC50 is 0.0302 µM. In addition, at OGA, the Emax came to 68.9% and the EC50 was 0.389 µM.
Turning to `CC(=O)Nc1ncc(CN2CCC3(CCN(c4cncc(C)c4)C3)C2)s1` (stereo not shown) [Product 68], in assay [1], the Emax was 103% and the IC50 was 0.0102 µM. Also, at OGA, the Emax is 92.9% and the EC50 was 0.138 µM.
For the compound `CC(=O)Nc1ncc(CN2CCC3(CCN(c4cnccn4)C3)C2)s1` (stereo not shown) [Product 11], in assay [1], the maximal response (Emax) was 99.1% and the IC50 was 0.0813 µM.
Consider `Cc1cc(N2CCC3(CCN(Cc4ccc5scnc5c4)C3)C2)nc(C)n1` (stereo not shown) [Product 21], for which, in assay [1], the Emax turned out to be 98.1% and the IC50 was 0.17 µM. Further, at OGA, the Emax amounted to 23.6% and the EC50 was above 1 µM.
Turning to `Cc1cc(N2CCC3(CCN(C(C)c4ccc5nccnc5c4)C3)C2)cc(C)n1` (stereo not shown) [Product 6], in assay [1], the Emax is 97.8% and the IC50 was 0.0977 µM.
Consider `COc1cncc(N2CCC3(CCN(Cc4cnc(NC(C)=O)s4)C3)C2)c1` (stereo not shown) [Product 67], for which, in assay [1], the maximal effect (Emax) was determined as 99.4% and the IC50 was 0.0347 µM. On OGA, the Emax is 45.6% and the EC50 was 0.537 µM.
With `CC(=O)Nc1ncc(CN2CCC3(CCN(Cc4cc(C)nc(C)c4)C3)C2)s1` (stereo not shown) [Product 17], in assay [1], the Emax amounted to 90.6% and the IC50 is 0.562 µM.
In the case of `CC(=O)Nc1ncc(CN2CCC3(CCN(Cc4ccc(C(F)(F)F)cn4)C3)C2)s1` (stereo not shown) [Product 35], in assay [1], the Emax was determined as 84.4% and the IC50 is 2 µM.
With `CC(=O)Nc1ncc(CN2CCC3(CCN(c4cncnc4)C3)C2)s1` (stereo not shown) [Product 43], in assay [1], the Emax amounted to 99.8% and the IC50 was 0.0537 µM.
The matching figures for `CC(=O)Nc1ncc(CN2CCC3(CCN(c4nnc(C)cc4C)C3)C2)s1` (stereo not shown) [Product 55]: 99% and 0.0457 µM.
Regarding `Cc1cc(N2CCC3(CCN(C(C)c4ccc5c(c4)OCO5)C3)C2)nc(C)n1` (stereo not shown) [Product 10], in assay [1], the Emax was determined as 99.8% and the IC50 was 0.135 µM.
In the case of `CC(=O)Nc1ncc(CN2CCC3(CCN(c4cncc(C)n4)C3)C2)s1` (stereo not shown) [Product 12], in assay [1], the Emax came out at 101% and the IC50 is 0.0347 µM.
As to `CC(=O)Nc1ncc(CN2CCC3(CCN(c4nc(C)cnc4C)C3)C2)s1` (stereo not shown) [Product 40], in assay [1], the Emax amounted to 98.4% and the IC50 is 0.0661 µM.
On to `CC(=O)Nc1ncc(CN2CCC3(CCN(c4ccc(C)nc4)C3)C2)s1` (stereo not shown) [Product 44], for which, in assay [1], the maximal effect (Emax) was 102% and the IC50 is 0.0339 µM.
In the case of `CC(=O)Nc1ncc(CN2CCC3(CCN(c4cc(C)nc(C)c4)C3)C2)s1` (single isomer, unassigned) [Product 2], in assay [1], the maximum response (Emax) came out at 101% and the IC50 is 0.0102 µM.
With `Cc1cc(N2CCC3(CCN(C(C)c4ccc5c(c4)OCO5)C3)C2)cc(C)n1` (stereo not shown) [Product 8], in assay [1], the Emax was determined as 96.6% and the IC50 was 0.1 µM.
On to `CC(=O)Nc1ncc(CN2CCC3(CCN(c4cnc(C)nc4)C3)C2)s1` (stereo not shown) [Product 45], for which, in assay [1], the Emax was determined as 99.2% and the IC50 was 0.0617 µM.
On the same counts, the results for `COc1nc(C)ccc1N1CCC2(CCN(Cc3cnc(NC(C)=O)s3)C2)C1` (stereo not shown) [Product 53] are 97.1% and 0.309 µM.
For `Cc1cc(N2CCC3(CCN(Cc4ccc5nccnc5c4)C3)C2)cc(C)n1` (single isomer, unassigned) [Product 5], in assay [1], the “ENZYMATIC Emax (%)” value stood at 98.6% and the IC50 was 0.219 µM.
Consider `c1cnc2cc(CN3CCC4(CCN(c5cncc(C6CC6)n5)C4)C3)ccc2n1` (stereo not shown) [Product 14], for which, in assay [1], the Emax came to 94.2% and the IC50 was 0.724 µM.
For the compound `CC(=O)Nc1ncc(CN2CCC3(CCN(c4cc(F)ncc4C)C3)C2)s1` (stereo not shown) [Product 56], in assay [1], the maximum response (Emax) worked out at 100% and the IC50 is 0.0513 µM.
On the same counts, the results for `CC(c1ccc2nccnc2c1)N1CCC2(CCN(c3cncc(C4CC4)n3)C2)C1` (stereo not shown) [Product 15] are 93.4% and 0.229 µM.
Regarding `CC(=O)Nc1ncc(CN2CCC3(CCN(c4ncc(F)cc4F)C3)C2)s1` (stereo not shown) [Product 46], in assay [1], the Emax worked out at 99% and the IC50 was 0.112 µM.
For the compound `CC(=O)Nc1ncc(CN2CCC3(CCN(c4nc(C)ncc4C)C3)C2)s1` (stereo not shown) [Product 54], in assay [1], the Emax is 101% and the IC50 is 0.0282 µM.

Broadly, the Emax is the size of the effect at its maximum, as opposed to the concentration needed.
